Patent US8686113B2 (priority 2009, dated 2014)
In brackets after ≈: the same amount, converted by molar mass. Like-named read-outs stand apart in the source and are kept apart here. Non-standard residues stand in square brackets, D forms with d. Residues, ends and D or L forms follow the SMILES beside them. No end group written: not given here. Hyp = O=C(O)[C@@H]1C[C@@H](O)CN1; Orn = NCCC[C@H](N)C(=O)O

Key:
E. coli BL21 A1 = assay type: cell-based, Escherichia coli; settings: BL21, 20 h
In short: (§1)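 Broth microdilution in 1% TSB with twofold peptide series, final 128 μg/mL to 62.5 ng/mL, against 5×10^6 bacteria/mL stock suspension added 1:1. Incubated 20 h at 37 °C, growth read by absorbance at 595 nm; MIC is the lowest concentration with no growth, determined in triplicate.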

M. luteus 10240 = test: Growth inhibition assay (microdilution MIC); assay type: cell-based, Micrococcus luteus; settings: 10240, 20 h
In short: as §1

E. coli 045-849 SENTRY = test system: E. coli 045-849 SENTRY
Experimental: (§2) The minimum inhibitory concentrations (MIC) of the antimicrobial peptides and peptide derivatives were determined in microdilution assays. These used a continuous peptide dilution in sterile flat-bottomed 96-well microtiter plates (polystyrene, Greiner Bio-One GmbH, Frickenhausen, Germany) and a total volume of 100 μL per well. The aqueous peptide or peptidomimetic solutions were diluted with 1% TSB water, to obtain a final concentration of 256 μg/mL. 50 μL of the peptide or peptidomimetic solution was pipetted into the first well of each series and stirred. From this solution, 50 μL was transferred to the second well, stirred and again 50 μL was transferred to the next well, and so on. A double dilution series is obtained, beginning at 256 μg/mL in the first well to 125 ng/mL in the twelfth well. The bacteria, e.g. E. coli BL21 A1, were cultured overnight at 37° C. in nutrient broth (NB, Carl Roth GmbH+Co. KG, Karlsruhe, Germany). 50 μL of a 5×10^6 bacteria/mL suspension in 1% TSB was added to each well of the microtiter plate and thus a final concentration of the peptides or peptidomimetics from 128 μg/mL (well 1) to 62.5 ng/mL (well 12) was established in each series. The plates were incubated at 37° C. for 20 h and then the absorption was measured at 595 nm with a TECAN microtiter plate spectrophotometer (Tecan Trading AG, Mannedorf, Switzerland). The MIC values of all peptides and peptidomimetics were determined in triplicate. Sterile water was used as negative control.
(§3) The tests were in this case carried out in Mueller-Hinton medium (¼ concentrated), which is equivalent to 1% TSB.

E. coli ATCC BAA-457 = settings: ¼ Muller-Hinton medium
Experimental: as §2, §3

E. coli D31 J. Wilson = settings: ¼ Muller-Hinton medium
Experimental: as §2, §3

K. pneumoniae 012-3131 = test system: K. pneumoniae 012-3131
Experimental: as §2, §3

K. pneumoniae ATCC 27799 = settings: ATCC 27799
Experimental: as §2, §3

[1] = test system: K. pneumoniae K6 ATCC 700603; settings: ATCC 700603
Experimental: as §2, §3

[2] = test system: P. aeruginosa 10 J. Wilson
Experimental: as §2, §3

P. mirabilis ATCC 7002 = test system: P. mirabilis ATCC 7002
Experimental: as §2, §3

P. vulgaris ATCC 6896 = test system: P. vulgaris ATCC 6896
Experimental: as §2, §3

[3] = test system: S. typhimurium ATCC 14028
Experimental: as §2, §3

[4] = test system: S. typhimurium ATCC 700408
Experimental: as §2, §3

[5] = test system: S. typhimurium s5 (J. Weiser); settings: ¼ Muller-Hinton medium
Experimental: as §2, §3

[6] = test system: Escherichia coli DSM 10233
Experimental: as §2
(§4) The peptides shown in Table 8 were investigated for their MIC against pathogenic bacteria such as E. coli DSM 10233, K. pneumoniae DSM 681 and P. aeruginosa DSM 3227.

[7] = test system: Klebsiella pneumoniae DSM 681
Experimental: as §2, §4

[8] = test system: Pseudomonas aeruginosa DSM 3227
Experimental: as §2, §4

[9] = Stability against bacterial proteases in E. coli lysate; assay type: in vitro ADME; settings: E. coli lysate with 0.5 mg/mL protein concentration
Experimental: For the bacterial lysate, 500 mL of nutrient broth (Carl Roth GmbH+Co. KG, Karlsruhe) was inoculated with E. coli BL21 A1 and incubated overnight at 37° C. 2×250 mL bacterial suspension were centrifuged for 25 min at 5000 rpm and 4° C. in a Beckman Avanti™ J-20-XP centrifuge with JLA-10.500 rotor (Beckman Coulter, Fullerton, U.S.A.). The pellets were each suspended in 30 mL PBS (pH 7.4) and centrifuged again in a Beckman Allegra™ 2IR centrifuge (Beckman Coulter, Fullerton, U.S.A.). The pellets were each suspended in 10 mL PBS and were disrupted with ultrasound (Vibra-cell™ microtip, Fisher Bioblock Scientific, Illkirch, France) 2×5 min (750 W; amplitude 40%; 2 s on/3 s off) on ice. The bacterial lysates were combined and 1 mL aliquots were centrifuged at 15400 rpm for 20 min at 4° C. (Beckman Allegra™). The supernatants were removed and stored at −20° C. The protein content of the bacterial lysate was determined by protein determination according to Bradford.
A solution of 0.15 μg/mL peptide in bacterial lysate with protein content of 1.5 mg/mL or 0.5 mg/mL was incubated at 37° C. After 0, 30, 60, 120, 240 or 360 min, 200 μL was taken from each and the proteins were precipitated with 50 μL of 15% trichloroacetic acid. Then it was incubated for 10 min at 4° C. and then centrifuged for 5 min at 13000 rpm in a Minispin desktop centrifuge. 210 μL was taken from the supernatant and neutralized with 1 mol/L sodium hydroxide solution. The intact peptide and the degradation products were analyzed by HPLC. 60 μL of 3% aqueous acetonitrile with 0.1% trifluoroacetic acid (TFA) was added to the solution and 250 μL of the mixture was injected. After chromatographic separation, the constituents were identified by MALDI-TOF-MS,
In order to investigate the stability against bacterial proteases, a lysate was prepared from an overnight culture of E. coli BL21 A1 and the peptides were incubated in it. Using Bradford protein determination, the protein concentration was adjusted to 0.5 or 1.5 mg/mL.

[10] = mouse, serum
[11] = 25% aqueous mouse serum, 37° C., 75 μg/mL peptide
Experimental: For this, the peptides and peptidomimetics were dissolved in water, mouse serum was added and the peptide concentration was adjusted to 75 μg/mL. While shaking continuously, the mixture was incubated at 37° C. After 0, 30, 60, 120, 240 and 360 minutes, in each case an aliquot was taken and mixed with 15% aqueous trichloroacetic acid (Carl Roth GmbH & Co. KG; Karlsruhe, Germany). After incubation on ice for a further 10 minutes, the precipitated serum proteins were centrifuged off (5 min, 13400 rpm, MiniSpin, Eppendorf AG, Hamburg, Germany). The supernatant was removed, neutralized with 1 mol/L aqueous sodium hydroxide solution (Fluke Chemie GmbH, Buchs, Switzerland) and stored at −20° C. until analysis.
The supernatants were analyzed by RP-HPLC with a linear acetonitrile gradient (Biosolve BV, Valkenswaard, The Netherlands) in the presence of 0.1% trifluoroacetic acid (TFA, UV-grade, Fluka Chemie GmbH, Buchs, Switzerland) as ion-pairing reagent. The fractions were co-crystallized with α-cyanohydroxycinnamic acid (Bruker Daltonik GmbH; Bremen, Germany) as matrix (5.3 mg/mL in 50% acetonitrile in 0.1% aqueous TFA) and were analyzed with a tandem mass spectrometer (MALDI-TOF/TOF-MS, 4700 Proteomics Analyzer; Applied Biosystems GmbH, Weiterstadt, Germany) in the positive-ion reflector mode. The proportion of intact peptides and their degradation products or metabolites could thus be identified and quantified at the individual time points. The control used was 25% aqueous mouse serum, which was analyzed in parallel for the same time intervals.
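Wherever Half-life in 25% mouse serum is given: intact peptide left at successive time points measured by reversed-phase HPLC with an acetonitrile gradient in the supernatant after precipitation of serum proteins.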

Compound	MIC E. coli BL21 A1 (E. coli BL21 A1)	MIC M. luteus 10240 (M. luteus 10240)	MIC E. coli SEQ 102ATCC # BAA-4 57 (E. coli ATCC BAA-457)	MIC E. coli D31 J. Wilson (E. coli D31 J. Wilson)	MIC K. pneumoniae 012-3131 (K. pneumoniae 012-3131)	MIC K. pneumoniae ATCC 27799 (K. pneumoniae ATCC 27799)	MIC K. pneumoniae K6 ATCC 700603 [1]	MIC E. coli DSM 10233 [6]	MIC K. pneumoniae DSM 681 [7]	other results
CC[C@H](C)[C@H](NC(=O)[C@H](CCCNC(=N)N)NC(=O)[C@H](CCCNC(=N)N)NC(=O)[C@@H]1CCCN1C(=O)[C@@H]1CCCN1C(=O)[C@H](CCCNC(=N)N)NC(=O)[C@@H]1CCCN1C(=O)[C@H](CCCNC(=N)N)NC(=O)[C@@H]1C[C@@H](O)CN1C(=O)[C@H](CC(C)C)NC(=O)[C@H](Cc1ccc(O)cc1)NC(=O)[C@@H]1CCCN1C(=O)[C@@H]1CCCN1C(=O)[C@H](CCCCN)NC(=O)[C@H](CC(=O)O)NC(=O)[C@@H](N)C(C)C)C(=O)N[C@@H](Cc1ccc(O)cc1)C(=O)N[C@@H](CC(N)=O)C(=O)N[C@@H](CCCNC(=N)N)C(N)=O [compound 22] (H-VDKPPYL[Hyp]RPRPPRRIYNR-NH2)	8 µg/mL (≈ 3.33 µM)	4 µg/mL (≈ 1.66 µM)	4 µg/mL (≈ 1.66 µM)	2 µg/mL (≈ 0.831 µM)	4 µg/mL (≈ 1.66 µM)	16 µg/mL (≈ 6.65 µM)	8 µg/mL (≈ 3.33 µM)	–	–	MIC E. coli 045-849 SENTRY (E. coli 045-849 SENTRY; 045-849 SENTRY): 4 µg/mL (≈ 1.66 µM); MIC P. aeruginosa 10 J. Wilson [2]: 16 µg/mL (≈ 6.65 µM); MIC P. mirabilis ATCC 7002 (P. mirabilis ATCC 7002; ATCC 7002): 128 µg/mL (≈ 53.2 µM); MIC P. vulgaris ATCC 6896 (P. vulgaris ATCC 6896; ATCC 6896): 128 µg/mL (≈ 53.2 µM); MIC S. typhimurium ATCC 14028 [3]: 2 µg/mL (≈ 0.831 µM); MIC S. typhimurium ATCC 700408 [4]: 0.5 µg/mL (≈ 0.208 µM); MIC S. typhimurium s5 (J. Weiser) [5]: 8 µg/mL (≈ 3.33 µM)
CC[C@H](C)[C@H](NC(=O)[C@H](CCCN)NC(=O)[C@H](CCCNC(=N)N)NC(=O)[C@@H]1C[C@@H](O)CN1C(=O)[C@@H]1CCCN1C(=O)[C@H](CCCNC(=N)N)NC(=O)[C@@H]1CCCN1C(=O)[C@H](CCCNC(=N)N)NC(=O)[C@@H]1CCCN1C(=O)[C@H](CC(C)C)NC(=O)[C@H](Cc1ccc(O)cc1)NC(=O)[C@@H]1CCCN1C(=O)[C@@H]1CCCN1C(=O)[C@H](CCCCN)NC(=O)[C@H](CC(=O)O)NC(=O)[C@@H](N)C(C)C)C(=O)N[C@@H](Cc1ccc(O)cc1)C(=O)N[C@@H](CC(N)=O)C(=O)N[C@@H](CCCN)C(N)=O [compound 107] (H-VDKPPYLPRPRP[Hyp]R[Orn]IYN[Orn]-NH2)	4 µg/mL (≈ 1.72 µM)	4 µg/mL (≈ 1.72 µM)	–	–	–	–	–	16 µg/mL (≈ 6.89 µM)	4 µg/mL (≈ 1.72 µM)	MIC P. aeruginosa DSM 3227 [8]: >32 µg/mL
CC[C@H](C)[C@H](NC(=O)[C@@H]1C[C@@H](O)CN1C(=O)[C@H](CCCNC(=N)N)NC(=O)[C@@H]1C[C@@H](O)CN1C(=O)[C@@H]1CCCN1C(=O)[C@H](CCCNC(=N)N)NC(=O)[C@@H]1CCCN1C(=O)[C@H](CCCNC(=N)N)NC(=O)[C@@H]1CCCN1C(=O)[C@H](CC(C)C)NC(=O)[C@H](Cc1ccc(O)cc1)NC(=O)[C@@H]1CCCN1C(=O)[C@@H]1CCCN1C(=O)[C@H](CCCCN)NC(=O)[C@H](CC(=O)O)NC(=O)[C@@H](N)C(C)C)C(=O)N[C@@H](Cc1ccc(O)cc1)C(=O)N[C@@H](CC(N)=O)C(=O)N[C@@H](CCCN)C(N)=O [compound 108] (H-VDKPPYLPRPRP[Hyp]R[Hyp]IYN[Orn]-NH2)	2 µg/mL (≈ 0.862 µM)	32 µg/mL (≈ 13.8 µM)	–	–	–	–	–	1 µg/mL (≈ 0.431 µM)	2 µg/mL (≈ 0.862 µM)	remaining at 4 h, 0.15 μg/mL ([9]; E. coli BL21 A1 lysate (bacterial proteases), pH 7.4, read-out: percentage printed under half-life >240 min (peptide remaining)): 60%; half-life ([9]; 37° C.): > 4 h; MIC P. aeruginosa DSM 3227 [8]: 16 to 32 µg/mL; half-life [10]: 2.5 h
CC[C@H](C)[C@H](NC(=O)[C@@H](CCCNC(=N)N)NC(=O)[C@H](CCCNC(=N)N)NC(=O)[C@@H]1CCCN1C(=O)[C@@H]1CCCN1C(=O)[C@H](CCCNC(=N)N)NC(=O)[C@@H]1CCCN1C(=O)[C@H](CCCNC(=N)N)NC(=O)[C@@H]1CCCN1C(=O)[C@H](CC(C)C)NC(=O)[C@H](Cc1ccc(O)cc1)NC(=O)[C@@H]1CCCN1C(=O)[C@@H]1CCCN1C(=O)[C@H](CCCCN)NC(=O)[C@H](CC(=O)O)NC(=O)[C@@H](N)C(C)C)C(=O)N[C@@H](Cc1ccc(O)cc1)C(=O)N[C@@H](CC(N)=O)C(=O)N[C@@H](CCCNC(=N)N)C(N)=O [compound 111] (H-VDKPPYLPRPRPPR[dR]IYNR-NH2)	4 µg/mL (≈ 1.67 µM)	4 µg/mL (≈ 1.67 µM)	–	–	–	–	–	4 µg/mL (≈ 1.67 µM)	4 µg/mL (≈ 1.67 µM)	–
CC[C@@H](C)[C@@H](NC(=O)[C@@H](Cc1ccc(O)cc1)NC(=O)[C@@H](CC(N)=O)NC(=O)[C@H](N)CCCNC(=N)N)C(=O)N[C@H](CCCNC(=N)N)C(=O)N[C@H](CCCNC(=N)N)C(=O)N1CCC[C@@H]1C(=O)N1CCC[C@@H]1C(=O)N[C@H](CCCNC(=N)N)C(=O)N1CCC[C@@H]1C(=O)N[C@H](CCCNC(=N)N)C(=O)N1CCC[C@@H]1C(=O)N[C@H](CC(C)C)C(=O)N[C@H](Cc1ccc(O)cc1)C(=O)N1CCC[C@@H]1C(=O)N1CCC[C@@H]1C(=O)N[C@H](CCCCN)C(=O)N[C@H](CC(=O)O)C(=O)N[C@@H](C(N)=O)C(C)C [compound 117] (H-[dR][dN][dY][dI][dR][dR][dP][dP][dR][dP][dR][dP][dL][dY][dP][dP][dK][dD][dV]-NH2)	64 µg/mL (≈ 26.8 µM)	32 µg/mL (≈ 13.4 µM)	–	–	–	–	–	>32 µg/mL	>32 µg/mL	–
H-VDKPPYLPRPRPPRRIYNNR-NH2 [compound 15]	8 µg/mL	8 µg/mL	32 µg/mL	16 µg/mL	16 µg/mL	64 µg/mL	32 µg/mL	–	–	MIC E. coli 045-849 SENTRY (E. coli 045-849 SENTRY; 045-849 SENTRY): 4 µg/mL; MIC P. aeruginosa 10 J. Wilson [2]: 16 µg/mL; MIC P. mirabilis ATCC 7002 (P. mirabilis ATCC 7002; ¼ Muller-Hinton medium): >; MIC P. vulgaris ATCC 6896 (P. vulgaris ATCC 6896; ¼ Muller-Hinton medium): >; MIC S. typhimurium ATCC 14028 [3]: 4 µg/mL; MIC S. typhimurium ATCC 700408 [4]: 0.5 µg/mL; MIC S. typhimurium s5 (J. Weiser) [5]: 8 µg/mL
VDKPPYLPRPRPPRRIYNNR [compound 14]	8 µg/mL	16 µg/mL	64 µg/mL	32 µg/mL	32 µg/mL	128 µg/mL	64 µg/mL	–	–	MIC E. coli 045-849 SENTRY (E. coli 045-849 SENTRY; ¼ Muller-Hinton medium): 4 µg/mL; Half-life in 25% mouse serum [11]: <0.5 h
